Measurements published in article PMC8379669 (Computational and Structural Biotechnology Journal, 2021).

Tests used:
[1] = system: rat primary cortical neurons; assay: Glutamate-induced excitotoxicity, MAP2 immunostaining and DAPI staining; format: cell-based; settings: DIV9 neurons, 100 µM glutamate and 10 µM glycine
[2] = system: rat primary cortical neurons; assay: Glutamate-induced excitotoxicity, MTT assay; format: cell-based; settings: DIV9 neurons, glutamate 3 h, MTT after 24 h; pre-treatment with compounds
[3] = target: AChE from Electrophorus electricus (electric eel) (Electrophorus electricus, UniProt O42275); assay: In vitro AChE inhibition assay; format: biochemical
[4] = target: GluN2B containing NMDAR (GluN1/GluN2B) in HEK-293 cells (Homo sapiens, UniProt Q05586+Q13224); assay: Cell-based NMDAR activity assay
BChE from equine serum = BChE from equine serum (Equus caballus, UniProt P81908); assay: biochemical; format: biochemical
HepG2 cells = assay: MTT cytotoxicity assay on HepG2 cells; settings: 24 h
rat liver = assay: In vivo hepatotoxicity assessment by liver histopathology; settings: IP, 15 days, 201 3 mg/Kg, 208 1 mg/Kg, tacrine 5 mg/Kg
[5] = system: MSG induced cognitive impairment in rats; assay: Morris water maze test in MSG treated rats; format: in vivo; settings: rat, IP, 3 mg/Kg body weight with MSG 4 g/Kg; vs MSG alone
NMDAR = settings: read-out: IC50 NMDAR, reported value; cited from earlier work

Chain of GluN2B containing NMDAR (GluN1/GluN2B) in HEK-293 cells (Q13224 27-1484, species assumed, other chains not shown): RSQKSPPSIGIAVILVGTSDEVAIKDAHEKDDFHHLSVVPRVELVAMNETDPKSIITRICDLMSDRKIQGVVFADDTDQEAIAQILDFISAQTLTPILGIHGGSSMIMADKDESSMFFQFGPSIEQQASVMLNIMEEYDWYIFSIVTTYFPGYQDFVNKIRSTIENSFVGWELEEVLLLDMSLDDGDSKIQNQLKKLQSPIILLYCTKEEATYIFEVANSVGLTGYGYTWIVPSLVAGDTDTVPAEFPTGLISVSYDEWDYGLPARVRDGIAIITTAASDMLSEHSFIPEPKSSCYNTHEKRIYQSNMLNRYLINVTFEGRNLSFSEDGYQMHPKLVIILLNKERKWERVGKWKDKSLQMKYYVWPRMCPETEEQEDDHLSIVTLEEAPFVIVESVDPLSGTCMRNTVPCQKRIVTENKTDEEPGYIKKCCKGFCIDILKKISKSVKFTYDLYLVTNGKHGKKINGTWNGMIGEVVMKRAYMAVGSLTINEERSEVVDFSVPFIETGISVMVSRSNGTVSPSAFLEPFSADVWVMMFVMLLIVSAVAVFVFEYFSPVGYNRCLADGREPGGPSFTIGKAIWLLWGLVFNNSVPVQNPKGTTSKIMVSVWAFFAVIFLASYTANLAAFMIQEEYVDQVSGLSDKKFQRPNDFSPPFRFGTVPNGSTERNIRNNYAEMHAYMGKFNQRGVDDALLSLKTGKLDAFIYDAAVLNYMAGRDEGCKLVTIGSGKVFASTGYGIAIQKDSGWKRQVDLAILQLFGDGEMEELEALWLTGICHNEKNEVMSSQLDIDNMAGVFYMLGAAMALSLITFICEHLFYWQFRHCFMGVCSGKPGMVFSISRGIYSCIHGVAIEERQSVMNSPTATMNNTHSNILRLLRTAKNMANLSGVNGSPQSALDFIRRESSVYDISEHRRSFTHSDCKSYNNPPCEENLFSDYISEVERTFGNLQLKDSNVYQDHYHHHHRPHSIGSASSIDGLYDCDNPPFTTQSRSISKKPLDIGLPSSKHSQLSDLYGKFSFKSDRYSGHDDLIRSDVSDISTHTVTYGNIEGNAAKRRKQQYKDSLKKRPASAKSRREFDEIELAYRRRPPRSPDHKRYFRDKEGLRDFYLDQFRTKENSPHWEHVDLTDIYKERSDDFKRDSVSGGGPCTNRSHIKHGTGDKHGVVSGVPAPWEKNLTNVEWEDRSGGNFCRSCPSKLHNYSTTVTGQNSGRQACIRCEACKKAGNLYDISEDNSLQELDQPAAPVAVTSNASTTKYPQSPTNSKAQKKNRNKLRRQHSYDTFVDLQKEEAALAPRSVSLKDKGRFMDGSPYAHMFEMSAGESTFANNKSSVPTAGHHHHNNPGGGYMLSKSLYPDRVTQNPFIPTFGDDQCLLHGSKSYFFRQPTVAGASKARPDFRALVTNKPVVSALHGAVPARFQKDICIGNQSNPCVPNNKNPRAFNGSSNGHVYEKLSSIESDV
Chain of BChE from equine serum (P81908 whole entry): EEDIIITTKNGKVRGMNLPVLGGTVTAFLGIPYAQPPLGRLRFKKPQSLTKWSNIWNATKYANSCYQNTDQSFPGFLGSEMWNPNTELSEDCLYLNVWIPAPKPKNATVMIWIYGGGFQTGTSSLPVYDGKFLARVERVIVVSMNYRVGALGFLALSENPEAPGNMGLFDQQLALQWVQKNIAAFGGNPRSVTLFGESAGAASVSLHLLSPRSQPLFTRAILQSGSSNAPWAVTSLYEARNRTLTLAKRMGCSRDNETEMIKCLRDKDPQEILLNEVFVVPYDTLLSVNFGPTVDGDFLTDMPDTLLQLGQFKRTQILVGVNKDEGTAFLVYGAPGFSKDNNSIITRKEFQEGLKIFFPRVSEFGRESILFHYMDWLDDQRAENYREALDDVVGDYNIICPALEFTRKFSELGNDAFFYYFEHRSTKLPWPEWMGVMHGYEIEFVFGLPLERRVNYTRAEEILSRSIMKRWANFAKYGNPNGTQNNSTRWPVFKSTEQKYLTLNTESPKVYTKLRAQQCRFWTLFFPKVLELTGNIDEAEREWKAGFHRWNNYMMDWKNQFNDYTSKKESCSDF
Chain of AChE from Electrophorus electricus (electric eel) (O42275 24-633): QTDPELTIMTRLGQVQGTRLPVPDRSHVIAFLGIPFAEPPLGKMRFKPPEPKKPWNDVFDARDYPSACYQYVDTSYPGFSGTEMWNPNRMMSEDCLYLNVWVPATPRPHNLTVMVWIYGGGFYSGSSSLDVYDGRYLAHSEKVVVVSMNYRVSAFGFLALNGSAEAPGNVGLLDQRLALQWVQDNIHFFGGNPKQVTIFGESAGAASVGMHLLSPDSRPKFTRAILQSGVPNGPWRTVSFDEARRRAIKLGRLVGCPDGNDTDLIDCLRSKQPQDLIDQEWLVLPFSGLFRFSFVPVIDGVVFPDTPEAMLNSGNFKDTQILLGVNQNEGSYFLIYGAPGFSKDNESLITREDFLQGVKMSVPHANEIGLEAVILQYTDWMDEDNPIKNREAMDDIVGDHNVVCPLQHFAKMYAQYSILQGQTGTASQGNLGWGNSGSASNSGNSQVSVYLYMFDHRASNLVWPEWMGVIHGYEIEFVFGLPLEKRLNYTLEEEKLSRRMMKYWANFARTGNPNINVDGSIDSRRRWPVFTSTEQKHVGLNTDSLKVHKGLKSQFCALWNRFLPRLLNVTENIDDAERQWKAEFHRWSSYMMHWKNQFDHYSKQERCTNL

SMILES	condensed nuclei / viable cells (DAPI staining) after glutamate [1]	decrease in MAP2 positive cells and loss of neuronal architecture caused by glutamate [1]	reduction in neuronal viability by glutamate (MTT assay) [2]	IC50 [3] [nM]	IC50 [4] [µM]	inhibition at 100 µM ([4]; HEK293, read-out: inhibition of NMDAR activity) [%]	category of NMDAR inhibitor ([4]; based on NMDAR IC50)	antagonism of NMDAR activity, in words ([4]; initial screening studies)	IC50 (BChE from equine serum) [nM]	IC50 values (mean ± SD) BChE (BChE from equine serum; BChE from equine serum)	cytotoxicity on HepG2 cells, in words (HepG2 cells; 10-300 μM)	liver histopathology (H&E), in words (rat liver)	escape latency in MWM, 5 days [5]	IC50 (NMDAR) [µM]	concentration up to which safe on HepG2 cells (HepG2 cells)	reduction in cell viability (HepG2 cells; HepG2, 300 µM) [%]
Cn1cc(-c2ccc3c(N)c4c(nc3c2)CCCC4)cn1 [Compound 201, 6-(1-methyl-1H-pyrazol-4-yl)-1,2,3,4-tetrahydroacridin-9-amine]	clear decrease in the number of condensed nuclei	prevented	averted	40.9 ± 4.82	15.2 ± 6.14	~100	moderate (moderate (IC50 < 20 μM))	effective in antagonizing NMDAR activity	850 ± 10	submicromolar	non-toxic	did not show any change in the liver architecture	significantly reduced the escape latency	–	–	–
Nc1c2c(nc3ccccc13)CCCC2 [tacrine, reference compound]	–	–	–	–	–	–	–	–	–	–	–	–	–	193 ± 33	up to 50 µM	~50
